Where two headings read alike, the source gives them in different places.
Legend:
[1] = test system: primary rat osteoclastes; assay: Osteoclastic activity in vitro (reabsorption areas on calcium phosphate plaques); conditions: 1 nM, 18 hours at 37° C.; control 100
[2] = test system: gastric damage caused by ischaemia-reperfusion; assay: Gastric damage caused by ischaemia-reperfusion in rats; conditions: 28 :moles/kg by os 2 hours before the ischaemia; control 3 ± 1
[3] = test system: arthritis caused by collagen; assay: Anti-arthritic activity in collagen-induced arthritis in rats; assay type: in vivo, Lewis rats; conditions: 4 :moles/kg i.p.; for Hind Legs Articulations Sizes: day 12 to 18, measured on day 18, control 7.03, naive 5.9; for histological analysis of the articulations: day 18; for Leg Average Volume: plethysmometer, control 1.5, naive 1.1; for Hip Functionality Evaluation (Score): score 0 (absence of inflammation) to 3 (serious inflammation), control 1.6; for Hind Legs Articulations Reduction %: with respect to the control group treated only with collagen suspension
Protocol: Lewis female rats weighing 150-200 g fed by a standard diet and with free access to water have been stabulated with cycles of 12 hours light/dark.
To carry out the experiment, the rats were anaesthetized with halothane (day zero), then at the base of the tail, by intradermal injection, a collagen suspension II/Freund's incomplete adjuvant (400: g/rat) was injected, prepared as described hereinafter: nasal bovine collagen of type II (Sigma-Aldrich, 4 mg/ml) has been dissolved in acetic acid (0.01 M) and emulsified with a same volume of cold Freund's incomplete adjuvant (Sigma-Aldrich).
The arthritic pathology became evident between the 11th and the 13th day, with a maximum inflammation at the 18th day in untreated rats.
From the 12th to the 18th day subsequent to the injection, the rats, divided in 3 groups of 10 animals each, have been treated i.p. according to the following protocol:
A fourth group of healthy rats (naive) has been taken as a further reference.
During the treatment with the tested compounds the antiarthritic activity has been evaluated by the following parameters: • average paw volume determined by a plethysmometer; • clinical evaluation of the hip functionality by an arbitrary score from 0 (absence of inflammation) to 3 (serious inflammation, which affects both the hip articulation and the animal paw).
On the 18th day the rats were sacrificed and the diameters of the femoral articulations of the animal hind legs were determined after skin removal; and an histological analysis of the articulations was carried out.
In table 5 there are reported: • the articulation sizes expressed in mm, • the percent reduction of the articulation size calculated with respect to the control rat group treated only with the collagen suspension, • the paw average volume, expressed in ml, daily determined, • the score evaluation of the hip functionality.

[4] = biological target: T1, glucocorticoid receptor (Homo sapiens, UniProt P04150); assay: GR binding assay: displacement of 3H-dexamethasone from glucocorticoid binding sites in human monocytes; conditions: 3H-dexamethasone 50 nM, 37° C., 1 hour
T1 construct: The monocytes have been isolated from human blood by a method based on a density gradient; endogenous in cells; host or cells: primary human blood monocytes (Ficoll-Hypaque isolated), intact cells
T1 sequence (P04150 1-777): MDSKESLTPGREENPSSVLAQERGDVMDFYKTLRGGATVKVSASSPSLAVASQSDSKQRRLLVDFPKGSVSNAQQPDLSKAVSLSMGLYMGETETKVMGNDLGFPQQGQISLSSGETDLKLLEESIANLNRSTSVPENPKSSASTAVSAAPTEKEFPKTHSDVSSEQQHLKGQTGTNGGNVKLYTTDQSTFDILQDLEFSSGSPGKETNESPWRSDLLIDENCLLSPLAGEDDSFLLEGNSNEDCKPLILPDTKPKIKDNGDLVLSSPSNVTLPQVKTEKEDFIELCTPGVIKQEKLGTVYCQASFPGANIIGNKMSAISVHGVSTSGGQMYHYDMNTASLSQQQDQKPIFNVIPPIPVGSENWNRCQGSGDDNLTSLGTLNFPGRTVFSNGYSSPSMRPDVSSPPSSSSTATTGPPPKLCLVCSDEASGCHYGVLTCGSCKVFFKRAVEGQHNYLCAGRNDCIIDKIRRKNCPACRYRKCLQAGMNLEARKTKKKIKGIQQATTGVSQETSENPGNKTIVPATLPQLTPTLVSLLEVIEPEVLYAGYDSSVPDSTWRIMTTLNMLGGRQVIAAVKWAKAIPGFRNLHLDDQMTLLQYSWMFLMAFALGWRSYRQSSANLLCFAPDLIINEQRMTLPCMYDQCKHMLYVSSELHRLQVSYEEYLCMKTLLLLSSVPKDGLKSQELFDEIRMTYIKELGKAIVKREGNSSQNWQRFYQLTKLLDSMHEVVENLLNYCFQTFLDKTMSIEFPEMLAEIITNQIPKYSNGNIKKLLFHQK
Protocol: In these experiments human monocytes having on their surface receptors for glucocorticoids have been used.
In this experiment the capability of the tested substances to displace ^3H-dexamethasone from the bond sites for the glucorticoids present in human monocytes has been evaluated.
The test tube content has been mixed using a Vortex equipment. The test tubes have then been incubated at 37° C. for 1 hour.
After incubation, the cells have been washed 4 times with a saline solution in phosphate buffer cooled in ice bath (PBS, 0.01 M) and the amount of [^3H]-dexamethasone bound to the cells has been determined by liquid scintigraphy. For each sample the concentration of [^3H]-dexamethasone bound to the cells (femtomoles (fmoles)/ml 10^−15 moles/ml) has been calculated by substracting from the measured values the non specific bond value, and then multiplying by the ratio molarity/radioactivity.
The data reported in the Tables are expressed in fmole [^3H]-dexamethasone/ml.

[5] = test system: bronchoconstriction caused by histamine; assay: Bronchoconstriction caused by histamine in guinea pigs (sGaw, whole body plethysmography); assay type: in vivo
Protocol: Male guinea pigs weighing between 250 and 300 g for several days before the beginning of the experiment have been accustomed to the restrained and whole-body plethysmograph. Histamine (3 mM dissolved in saline solution 0.9%) has been administered by intranasal route for 20 seconds 24 hours before and 15 minutes after the administration of the tested compounds. NO-Budesonide (635: g/ml) and Budesonide (448: g/ml) dissolved in a mixture (v/v) DMSO 20%, ethanol 10%, saline physiological solution 70%, or the carrier, have been administered to the animals as aerosols, in a sealed room, using a wright nebulizer operating by compressed air at a pressure of 21.38×10^3 Pa (20 p.s.i.) and a flow of 0.5 ml/min. The administration lasted 15 minutes.
To monitor the functionality of the animal airways the “whole body” plethysmography has been used. The animals were watchful and functionality has been determined as specific conductance of the airways (sGaw), expressed in % change of the basal value in the instant immediately after the exposure. To this purpose the animals were provided with a suitable mask and then transferred in a sealed room. The respiratory flow has been determined by a pneumotachograph and a pressure transducer.

[6] = test system: spinal lesions from trauma; assay: Recovery of motor functions after spinal lesions from trauma in rats (BBB score); conditions: 20 mg/kg s.c. once a day for 5 days
[7] = test system: primary rat osteoclastes; conditions: 18 h, 1 nM
[8] = assay type: in vivo, Sprague Dawley rats; conditions: 5 mg/Kg/die i.p. for 3 weeks
Protocol: […]. The controls have been treated with the carrier (peanut oil 0.5 ml/rat/die i.p. for 3). At the end of the treatment the average arterial pressure (MABP) and the heart-beat have been controlled in the rats. […]. treated group 348±18, n=9).

[9] = t0 = 24 hours before the inhalation of the tested compound
[10] = t1 = 15 minutes after the inhalation of the tested compound, aerosol for 15 minutes, equimolar doses (635 / 448 :g/ml)

SMILES: C[C@]12C=CC(=O)C=C1CC[C@@H]1[C@@H]2[C@@H](O)C[C@@]2(C)[C@H]1CC[C@]2(O)C(=O)CO [Prednisolone, reference compound]
- % Reabsorbed Area with Respect to Control Area [1]: 148%
- Lesion Index (LI) [2]: 44 ± 2.5
- Hind Legs Articulations Sizes [3]: 6.1 mm
- histological analysis of the articulations [3]: cartilage ulcerations and synovial inflammation were present
- Leg Average Volume [3]: 1.26 mL
- Hip Functionality Evaluation (Score) [3]: 0.6 Score
- Hind Legs Articulations Reduction % [3]: 12.7%

SMILES: C[C@]12C=CC(=O)C=C1CC[C@@H]1[C@@H]2[C@@H](O)C[C@@]2(C)[C@H]1CC[C@]2(O)C(=O)COC(=O)CN1CCN(CCCO[N+](=O)[O-])CC1.O=C(O)C(F)(F)F.O=C(O)C(F)(F)F [Predn-pyper-C3—ONO2, Prednisolone-21-[2-[4-(3-nitrooxypropyl)piperazin-1-yl]acetate]bis-trifluoromethanacetate]
- Bound 3H Dexamethasone ([4]; tested compound 1 μM): 2.4 fmol/mL

SMILES: C[C@]12C=CC(=O)C=C1CC[C@@H]1[C@@H]2[C@@H](O)C[C@@]2(C)[C@H]1CC[C@]2(O)C(=O)COC(=O)CN1CCN(CCCO[N+](=O)[O-])CC1.Cl.Cl [Predn-pyper-ONO2, Prednisolone-21-[2-[4-(3-nitrooxypropyl)piperazin-1-yl]acetate]bishydrochloride]
- Bound 3H Dexamethasone ([4]; tested compound 1 μM): 5.5 fmol/mL

SMILES: C[C@]12CCC(=O)C=C1CC[C@@H]1[C@@H]2[C@@H](O)C[C@@]2(C)[C@H]1CC[C@]2(O)C(=O)COC(=O)CCCO[N+](=O)[O-] [Hydr-C4—ONO2, Hydrocortisone-21-(4-nitrooxybutyrate), reference compound]
- Bound 3H Dexamethasone ([4]; tested compound 0.3 :M): 25.6 fmol/mL
- Bound 3H Dexamethasone ([4]; tested compound 10 :M): 4.3 fmol/mL

SMILES: CCCC1O[C@@H]2CC3C4CCC5=CC(=O)C=C[C@]5(C)C4[C@@H](O)C[C@]3(C)[C@]2(C(=O)COC(=O)c2ccc(CO[N+](=O)[O-])cc2)O1 (stereo partly drawn) [Budesonide-NO, Budesonide 21-(4′-nitrooxymethyl)benzoate]
- inhibition of the bronchoconstriction caused by histamine ([5]; aerosol, equimolar doses): 100%
- specific conductance of the airways (sGaw), % change of the basal value after histamine [5, 9]: −29.7 ± 9.8%
- specific conductance of the airways (sGaw), % change of the basal value after histamine [5, 10]: +1.4 ± 7.9%

SMILES: C[C@]12CCC(=O)C=C1CCC1C2[C@@H](O)C[C@@]2(C)C1CC[C@]2(O)C(=O)COC(=O)c1ccc(CO[N+](=O)[O-])cc1 (stereo partly drawn) [Hydr-Ar—ONO2, Hydrocortisone 21-(4′-nitrooxymethyl)benzoate]
- Bound 3H Dexamethasone ([4]; tested compound 0.3 :M): 17.3 fmol/mL
- Bound 3H Dexamethasone ([4]; tested compound 10 :M): 0 fmol/mL

SMILES: C[C@]12C=CC(=O)C=C1CCC1C2[C@@H](O)C[C@@]2(C)C1CC[C@]2(O)C(=O)COC(=O)c1ccc(CO[N+](=O)[O-])cc1 (stereo partly drawn) [Predn-Ar—ONO2, Prednisolone 21-(4′-nitrooxymethyl)benzoate]
- Motor Behaviour Evaluation (BBB score) ([6]; 3rd day after trauma, 0 = does not walk, 20 = normal, control 4): 8
- Motor Behaviour Evaluation (BBB score) ([6]; 5th day after trauma, control 6): 14
- Motor Behaviour Evaluation (BBB score) ([6]; 7th day after trauma, control 8): 17
- Lesion Index (LI) [2]: 7 ± 2.1
- Bound 3H Dexamethasone ([4]; tested compound 1 μM): 0 fmol/mL
- % Reabsorbed Area with Respect to Control Area [7]: 90%
- heart-beat ([8]; control 330±32): 348±18
- average arterial pressure (MABP) ([8]; controls 110±4): 128±7
- Hind Legs Articulations Sizes [3]: 5.7 mm
- histological analysis of the articulations [3]: both the synovial inflammation and the infiltration of inflammatory cells in cartilages were minimal, without compromising the cartilages
- Leg Average Volume [3]: 1.1 mL
- Hip Functionality Evaluation (Score) [3]: 0.1 Score
- Hind Legs Articulations Reduction % [3]: 18.6%

SMILES: C[C@@H]1CC2C3CCC4=CC(=O)C=C[C@]4(C)[C@@]3(F)[C@@H](O)C[C@]2(C)[C@@]1(O)C(=O)COC(=O)c1ccc(CO[N+](=O)[O-])cc1 (stereo partly drawn) [Dex-Ar—ONO2, Dexamethasone 21-(4′-nitrooxymethyl)benzoate]
- Bound 3H Dexamethasone ([4]; tested compound 0.1 μM): 1.1 fmol/mL

SMILES: C[C@]12C=CC(=O)C=C1CC[C@@H]1[C@@H]2[C@@H](O)C[C@@]2(C)[C@H]1CC[C@]2(O)C(=O)COC(=O)CCCO[N+](=O)[O-] [Predn-C4—ONO2, Prednisolone 21-(4-nitrooxy)butyrate, reference compound]
- Bound 3H Dexamethasone ([4]; tested compound 1 μM): 9.9 fmol/mL

SMILES: CCCC1O[C@@H]2C[C@H]3[C@@H]4CCC5=CC(=O)C=C[C@]5(C)[C@H]4[C@@H](O)C[C@]3(C)[C@]2(C(=O)CO)O1 (stereo partly drawn) [Budesonide, reference compound]
- specific conductance of the airways (sGaw), % change of the basal value after histamine [5, 9]: −28.7 ± 8.8%
- specific conductance of the airways (sGaw), % change of the basal value after histamine [5, 10]: −42.6 ± 15.9%

Source: US20090221543A1, “NEW CORTICOSTEROIDS” (NICOX S A., priority 2002, published 2009)
